Data from US10485235B2, “Aryloxypyrimidinyl ethers as herbicides” (FMC Corporation, priority 2015, dated 2019).

Assays:
Type in all cases: in vivo
[1] = system: pigweed (Amaranthus retroflexus); assay: Test A postemergence, pigweed; details: postemergence, 0 to 100 scale, 0 is no effect, 100 is complete control, approximately 10 days
Excerpt: (§1) Seeds of plant species selected from barnyardgrass (Echinochloa crus-galli), kochia (Kochia scoparia), ragweed (common ragweed, Ambrosia elatior), ryegrass, Italian (Italian ryegrass, Lolium multiflorum), foxtail, giant (giant foxtail, Setaria faberii), and pigweed (Amaranthus retroflexus), were planted into a blend of loam soil and sand and treated preemergence with a directed soil spray using test chemicals formulated in a non-phytotoxic solvent mixture which included a surfactant.
(§2) At the same time, plants selected from these weed species and also wheat (Triticum aestivum), corn (Zea mays), blackgrass (Alopecurus myosuroides), and galium (catchweed bedstraw, Galium aparine), were planted in pots containing the same blend of loam soil and sand and treated with postemergence applications of test chemicals formulated in the same manner. Plants ranged in height from 2 to 10 cm and were in the one- to two-leaf stage for the postemergence treatment. Treated plants and untreated controls were maintained in a greenhouse for approximately 10 days, after which time all treated plants were compared to untreated controls and visually evaluated for injury. Plant response ratings, summarized in Table A, are based on a 0 to 100 scale where 0 is no effect and 100 is complete control. A dash (—) response means no test result.

[2] = system: ryegrass, Italian (Italian ryegrass, Lolium multiflorum); assay: Test A postemergence, Italian ryegrass; details: postemergence, 0 to 100 scale, 0 is no effect, 100 is complete control, approximately 10 days
Excerpt: as §1, §2

[3] = system: ducksalad (Heteranthera limosa); assay: Test B flooded paddy test, ducksalad; details: 250 g ai/ha, Flood; visual rating after 13 to 15 days; scale 0 to 100, 0 is no effect, 100 is complete control
Method: (§3) Plant species in the flooded paddy test selected from rice (Oryza sativa), sedge, umbrella (small-flower umbrella sedge, Cyperus difformis), ducksalad (Heteranthera limosa), and barnyardgrass (Echinochloa crus-galli) were grown to the 2-leaf stage for testing. At time of treatment, test pots were flooded to 3 cm above the soil surface, treated by application of test compounds directly to the paddy water, and then maintained at that water depth for the duration of the test. Treated plants and controls were maintained in a greenhouse for 13 to 15 days, after which time all species were compared to controls and visually evaluated. Plant response ratings, summarized in Table B, are based on a scale of 0 to 100 where 0 is no effect and 100 is complete control. A dash (—) response means no test result.

[4] = system: foxtail, giant (giant foxtail, Setaria faberii); assay: Test A preemergence, giant foxtail; details: Preemergence, 0 to 100 scale (0 no effect, 100 complete control)
Excerpt: as §1, §2

[5] = system: ragweed (common ragweed, Ambrosia elatior); assay: Test A preemergence, ragweed; details: Preemergence, 0 to 100 scale (0 no effect, 100 complete control)
Excerpt: as §1, §2

[6] = system: ragweed (common ragweed, Ambrosia elatior); assay: Test A postemergence, ragweed; details: postemergence, 0 to 100 scale, 0 is no effect, 100 is complete control, approximately 10 days
Excerpt: as §1, §2

[7] = system: wheat (Triticum aestivum); assay: Test A postemergence, wheat; details: postemergence, 0 to 100 scale, 0 is no effect, 100 is complete control, approximately 10 days
Excerpt: as §1, §2

[8] = system: barnyardgrass (Echinochloa crus-galli); assay: Test B flooded paddy test, barnyardgrass; details: 250 g ai/ha, Flood; visual rating after 13 to 15 days; scale 0 to 100, 0 is no effect, 100 is complete control
Method: as §3

[9] = system: foxtail, giant (giant foxtail, Setaria faberii); assay: Test A postemergence, giant foxtail; details: postemergence, 0 to 100 scale, 0 is no effect, 100 is complete control, approximately 10 days
Excerpt: as §1, §2

[10] = system: sedge, umbrella (small-flower umbrella sedge, Cyperus difformis); assay: Test B flooded paddy test, umbrella sedge; details: 250 g ai/ha, Flood; visual rating after 13 to 15 days; scale 0 to 100, 0 is no effect, 100 is complete control
Method: as §3

kochia (Kochia scoparia) [11] = assay: Test A postemergence, kochia; details: postemergence, 0 to 100 scale, 0 is no effect, 100 is complete control, approximately 10 days
Excerpt: as §1, §2

kochia (Kochia scoparia) [12] = assay: Test A preemergence, kochia; details: Preemergence, 0 to 100 scale (0 no effect, 100 complete control)
Excerpt: as §1, §2

[13] = system: pigweed (Amaranthus retroflexus); assay: Test A preemergence, pigweed; details: Preemergence, 0 to 100 scale (0 no effect, 100 complete control)
Excerpt: as §1, §2

[14] = system: galium (catchweed bedstraw, Galium aparine); assay: Test A postemergence, galium; details: postemergence, 0 to 100 scale, 0 is no effect, 100 is complete control, approximately 10 days
Excerpt: as §1, §2

[15] = system: ryegrass, Italian (Italian ryegrass, Lolium multiflorum); assay: Test A preemergence, Italian ryegrass; details: Preemergence, 0 to 100 scale (0 no effect, 100 complete control)
Excerpt: as §1, §2

[16] = system: barnyardgrass (Echinochloa crus-galli); assay: Test A preemergence, barnyardgrass; details: Preemergence, 0 to 100 scale (0 no effect, 100 complete control)
Excerpt: as §1, §2

rice (Oryza sativa) = assay: Test B flooded paddy test, rice; details: 250 g ai/ha, Flood; visual rating after 13 to 15 days; scale 0 to 100, 0 is no effect, 100 is complete control
Method: as §3

corn (Zea mays) = assay: Test A postemergence, corn; details: postemergence, 0 to 100 scale, 0 is no effect, 100 is complete control, approximately 10 days
Excerpt: as §1, §2

[17] = system: blackgrass (Alopecurus myosuroides); assay: Test A postemergence, blackgrass; details: postemergence, 0 to 100 scale, 0 is no effect, 100 is complete control, approximately 10 days
Excerpt: as §1, §2

[18] = system: barnyardgrass (Echinochloa crus-galli); assay: Test A postemergence, barnyardgrass; details: postemergence, 0 to 100 scale, 0 is no effect, 100 is complete control, approximately 10 days
Excerpt: as §1, §2

SMILES | Plant response rating, Pigweed ([1]; 125 g ai/ha) | Plant response rating, Pigweed ([1]; 500 g ai/ha) | Plant response rating, Ryegrass, Italian ([2]; 125 g ai/ha) | Plant response rating, Ryegrass, Italian ([2]; 500 g ai/ha) | Plant response rating, Ducksalad [3] | Plant response rating, Foxtail, Giant ([4]; 125 g ai/ha) | Plant response rating, Foxtail, Giant ([4]; 500 g ai/ha) | Plant response rating, Ragweed ([5]; 125 g ai/ha) | Plant response rating, Ragweed ([5]; 500 g ai/ha) | Plant response rating, Ragweed ([6]; 125 g ai/ha) | Plant response rating, Ragweed ([6]; 500 g ai/ha) | Plant response rating, Wheat ([7]; 125 g ai/ha) | Plant response rating, Wheat ([7]; 500 g ai/ha) | Plant response rating, Barnyardgrass [8] | Plant response rating, Foxtail, Giant ([9]; 125 g ai/ha) | Plant response rating, Foxtail, Giant ([9]; 500 g ai/ha) | Plant response rating, Sedge, Umbrella [10] | Plant response rating, Kochia (kochia (Kochia scoparia) [11]; 125 g ai/ha) | Plant response rating, Kochia (kochia (Kochia scoparia) [11]; 500 g ai/ha) | Plant response rating, Kochia (kochia (Kochia scoparia) [12]; 125 g ai/ha) | other results
N#Cc1cccc(Oc2ncc(Cl)cn2)c1OCc1ccccc1Cl [Compound 2] | 0 | 10 | 0 | 0 | 0 | 10 | 70 | 0 | 0 | 0 | 10 | 0 | 0 | 0 | 0 | 10 | 0 | 30 | 40 | 0 | Plant response rating, Kochia (kochia (Kochia scoparia) [12]; 500 g ai/ha): 0; Plant response rating, Pigweed ([13]; 125 g ai/ha): 0; Plant response rating, Pigweed ([13]; 500 g ai/ha): 20; Plant response rating, Galium ([14]; 125 g ai/ha): 20; Plant response rating, Galium ([14]; 500 g ai/ha): 50; Plant response rating, Ryegrass, Italian ([15]; 125 g ai/ha): 0; Plant response rating, Ryegrass, Italian ([15]; 500 g ai/ha): 0; Plant response rating, Barnyardgrass ([16]; 125 g ai/ha): 0; Plant response rating, Barnyardgrass ([16]; 500 g ai/ha): 10; Plant response rating, Rice (rice (Oryza sativa)): 0; Plant response rating, Corn (corn (Zea mays); 125 g ai/ha): 0; Plant response rating, Corn (corn (Zea mays); 500 g ai/ha): 30; Plant response rating, Blackgrass ([17]; 125 g ai/ha): 0; Plant response rating, Blackgrass ([17]; 500 g ai/ha): 0; Plant response rating, Barnyardgrass ([18]; 125 g ai/ha): 0; Plant response rating, Barnyardgrass ([18]; 500 g ai/ha): 10
N#Cc1cccc(Oc2ncc(Cl)cn2)c1OCc1ccc(Cl)cc1 [Compound 3] | 100 | 100 | 20 | 30 | 0 | 90 | 100 | 0 | 10 | 60 | 60 | 0 | 10 | 0 | 60 | 70 | 80 | 70 | 90 | 80 | Plant response rating, Kochia (kochia (Kochia scoparia) [12]; 500 g ai/ha): 90; Plant response rating, Pigweed ([13]; 125 g ai/ha): 90; Plant response rating, Pigweed ([13]; 500 g ai/ha): 90; Plant response rating, Galium ([14]; 125 g ai/ha): 60; Plant response rating, Galium ([14]; 500 g ai/ha): 90; Plant response rating, Ryegrass, Italian ([15]; 125 g ai/ha): 20; Plant response rating, Ryegrass, Italian ([15]; 500 g ai/ha): 30; Plant response rating, Barnyardgrass ([16]; 125 g ai/ha): 50; Plant response rating, Barnyardgrass ([16]; 500 g ai/ha): 90; Plant response rating, Rice (rice (Oryza sativa)): 0; Plant response rating, Corn (corn (Zea mays); 125 g ai/ha): 10; Plant response rating, Corn (corn (Zea mays); 500 g ai/ha): 20; Plant response rating, Blackgrass ([17]; 125 g ai/ha): 20; Plant response rating, Blackgrass ([17]; 500 g ai/ha): 50; Plant response rating, Barnyardgrass ([18]; 125 g ai/ha): 50; Plant response rating, Barnyardgrass ([18]; 500 g ai/ha): 50
